In patent US7442392B2, “Pesticides” (priority 2004, dated 2008):

System: root-knot nematodes (Meloidogyne sp), some Pratylenchus sp.
Assay: Water screen, plant parasitic nematodes
Format: in vivo
Protocol: 100 microliters containing nematodes were pipetted into 2.5 cm Petri dishes. The nematodes used were principally root-knot nematodes (Meloidogyne sp) but some initial observations were also made on some Pratylenchus sp. and free-living species (non-plant parasites). 900 microliters of Loquat extract, or 500 microliters of Loquat extract plus 400 microliters of water, were added to the nematodes to give concentrations of 90 or 50% of the original Loquat extract. Total added volume was therefore 1 ml.
Controls were nematodes from the same source placed in tap water.
Following application of the Loquat or amygdalin solution, observations were made after 10 minutes, the next day, and after 5 days.

**Q.** How did the Activity of nematodes (10 minutes, both concentrations (70 mg or 400 mg in 50 ml water)) turn out when `N#C[C@H](O[C@@H]1O[C@H](CO[C@@H]2O[C@H](CO)[C@@H](O)[C@H](O)[C@H]2O)[C@@H](O)[C@H](O)[C@H]1O)c1ccccc1` [amygdalin] was run?
**A.** The Activity of nematodes was “still active”.

**Q.** And the Activity of nematodes (5 days later, both amygdalin treatments)?
**A.** The Activity of nematodes was “still active”.

**Q.** And the “Activity of amygdalin itself (conclusion)” value (in vivo)?
**A.** The value was “not active per se”.

**Q.** And the Activity of nematodes (next day, both amygdalin treatments)?
**A.** Its Activity of nematodes is “active”.
